Experimental data reported in ChEMBL document CHEMBL5634121, “Discovery of novel G9a/GLP covalent inhibitors for the treatment of triple-negative breast cancer” (Eur J Med Chem, 2023).
Active and inactive are the calls of the source. The rule behind the calls is not given here.

Experiments:
[1] = test system: MDA-MB-231; test: Antiproliferative activity against human MDA-MB-231 cells after 5 days by MTT assay; format: functional, cell-based; settings: MDA-MB-231, 120 h
[2] = AUC(0 to t) in ICR mouse at 2 mg/kg, iv measured upto 12 hrs by LC-MS/MS analysis; format: ADME, organism-based; settings: in vivo
[3] = biological target: T1, Histone-lysine N-methyltransferase EHMT2 (Homo sapiens, UniProt Q96KQ7); test: Inhibition of G9a (unknown origin)
T1 sequence (Q96KQ7 whole entry): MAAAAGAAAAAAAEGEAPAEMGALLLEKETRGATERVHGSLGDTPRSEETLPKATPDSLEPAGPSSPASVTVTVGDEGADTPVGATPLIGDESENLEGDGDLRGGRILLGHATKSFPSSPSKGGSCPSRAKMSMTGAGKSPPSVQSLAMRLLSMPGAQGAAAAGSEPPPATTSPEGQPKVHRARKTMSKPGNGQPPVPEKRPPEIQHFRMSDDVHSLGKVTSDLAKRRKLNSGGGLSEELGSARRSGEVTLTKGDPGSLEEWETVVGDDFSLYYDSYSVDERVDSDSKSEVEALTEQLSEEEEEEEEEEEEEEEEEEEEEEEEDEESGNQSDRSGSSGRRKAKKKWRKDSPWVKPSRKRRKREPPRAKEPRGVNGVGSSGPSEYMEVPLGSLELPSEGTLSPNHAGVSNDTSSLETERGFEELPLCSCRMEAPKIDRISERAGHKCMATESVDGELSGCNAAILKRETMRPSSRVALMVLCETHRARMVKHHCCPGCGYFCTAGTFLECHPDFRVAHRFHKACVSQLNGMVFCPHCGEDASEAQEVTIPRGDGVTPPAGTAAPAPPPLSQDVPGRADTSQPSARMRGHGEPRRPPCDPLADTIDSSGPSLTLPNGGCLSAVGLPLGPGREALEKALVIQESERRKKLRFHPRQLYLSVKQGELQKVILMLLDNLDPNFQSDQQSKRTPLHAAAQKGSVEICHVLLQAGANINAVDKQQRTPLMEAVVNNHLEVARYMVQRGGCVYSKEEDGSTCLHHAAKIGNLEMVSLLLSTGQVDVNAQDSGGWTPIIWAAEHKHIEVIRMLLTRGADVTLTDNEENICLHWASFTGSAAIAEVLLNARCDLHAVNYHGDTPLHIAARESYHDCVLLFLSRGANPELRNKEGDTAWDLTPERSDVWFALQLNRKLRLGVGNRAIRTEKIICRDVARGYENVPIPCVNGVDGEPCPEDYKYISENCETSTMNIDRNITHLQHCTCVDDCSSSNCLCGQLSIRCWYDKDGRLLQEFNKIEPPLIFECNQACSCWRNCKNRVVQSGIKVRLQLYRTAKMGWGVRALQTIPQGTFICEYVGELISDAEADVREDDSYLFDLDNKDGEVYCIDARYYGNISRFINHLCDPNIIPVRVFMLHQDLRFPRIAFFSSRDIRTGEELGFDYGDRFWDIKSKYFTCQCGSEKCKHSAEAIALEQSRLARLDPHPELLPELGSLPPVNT

[4] = test system: MDA-MB-231; test: Inhibition of colony formation in human MDA-MB-231 cells at 1 to 10 uM refreshed every 4 days for 12 days by crystal violet staining based assay; format: functional, cell-based; settings: dose 1-10 µM, time 12.0 day

- IC50 [1]: 598 nM
- AUC(0-t) at 12 h [2]: 1650 ng·h/mL
- IC50 [3]: 1220 nM
SMILES: C=CC(=O)Nc1cccc(-c2nc(NC3CCN(C)CC3)c3cc(OC)c(OC)cc3n2)c1
- inhibition [4]: Active
